Key:
[1] = system: tumor endothelial cells (activated) and normal endothelial cells (quiescent); assay: Selectivity between activated and quiescent endothelial cells; format: cell-based
Experimental: (§1) Proliferation Assay—quiescent endothelium: Human umbilical vein endothelial cells (CC-2519, Clonetics) were plated at 15000 cells/well in EBM2 (CC-3156, Clonetics)+0.5% FBS (CC-4101A, Clonetics)+GA-1000 (CC-4381A, Clonetics) in a 96 well plate in triplicate. Cells were cultured overnight at 37° C. 5% CO2. Medium was subsequently replaced with fresh medium including the compound or negative control. Cells were cultured for a period of 48 hrs. An MTT assay was performed to measure changes in cell numbers. Briefly, 20 μl of MTT reagent was added to cells containing 100 μl of EBM2+0.5% FBS and incubated at 37° C. for 2 hours. Absorbance was measured at 492 nm.
as §1, with “Assay—activated” for “Assay—quiescent”, “2500” for “15000”, “EGM2 (CC-3162,” for “EBM2 (CC-3156, Clonetics)+0.5% FBS (CC-4101A, Clonetics)+GA-1000 (CC-4381A,”, “EGM2” for “EBM2+0.5% FBS”

[2] = system: MDA-MB-231 solid orthotopic tumors; assay: Tumor growth inhibition, MDA-MB-231 orthotopic tumors; format: in vivo, Balb/c nu/nu mice; conditions: 40 mg/kg i.v., two cycles, up to 72 days; vs vehicle p<0.001 from day 4 to Day 70
From the text: Animals were i.v. dosed with a total of two cycles of Example 2 treatment. Each cycle was dosing on […] followed by a three week no-dosing period. Tumor growth represented as a ratio to initial tumor volume is shown over a total of 72-days.
Tumor growth as well as animal health were monitored for up to 72 days post-day 1 of treatment. […] Significant differences in tumor growth between Example 2 treated (n=64) and vehicle treated (n=20) animals were observed as early as day 4 (p<0.001; unpaired t-test; Prism® analysis) through to Day 70.

Caki-1 xenograft tumors = assay: Immunohistochemistry analysis of Caki-1 renal xenografts; format: in vivo, BALB/c nu/nu mice; conditions: single i.v. 32 mg/kg
From the text: These effects result in some reduction of tumor growth in animal models. Tumor recovery from the vascular damage caused by VDA action occurs within 48 hrs post-treatment. Furthermore, vascular disruption spares the outer cellular rim of a tumor mass that appears to be supported by normal vessels that surround the tumor capsule and remain unaffected by VDA action. It is reasonable to hypothesise that his viable rim subsequently supports tumor revascularisation and recovery from the action of the VDA agent. We hypothesised that the recovery of the tumors from the effects of the VDA action is driven by molecular pathways that support cancer cell survival and induction of angiogenesis. We undertook a number of histological analyses to assess the damage caused by Example 2 on the integrity of components of the tumor microenvironment and obtain information of upregulation of proteins that are likely to be involved in tumor recovery. Our analyses included evaluation of the expression of VEGF, phosphorylated mTOR, Hypoxia inducible factor-1-alpha (Hif-1α), and Hypoxia inducible factor-2-alpha (Hif-2α), the level of apoptosis, integrity of endothelial cells and the basement membrane protein laminin.
Female BALB/c nu/nu mice at 6 to 8 weeks were injected s.c. with the human cancer cell line Caki-1 representing renal cancer. Cells were resuspended in Dulbecco's PBS (Sigma-Aldrich) and 5×10^6 cells were injected s.c. Tumors were grown to an average size of 700 mm^3 prior to treatment. Example 2 treatment consisted of a single i.v. injection at dose level of 32 mg/kg. Saline treatment was included as a vehicle control. Animals were euthanized and tumors were excised for histologic examination 24 hours post dosing. Cryosections of tumors were prepared and probed with phosphorylated mTOR (ser 2448), Hif-1α, Hif-2α and CD31 specific antibodies. Antibody staining was visualized using 3,3′-Diaminobenzidine (brown staining) and sections were conterstained with Myers hematoxylin.

[3] = system: Human umbilical vein endothelial cells (HUVECs), tumour type activated endothelial cells; assay: Proliferation assay, activated endothelium (Tum); format: cell-based; conditions: HUVEC, given as ranges
Experimental: as §1, with “Assay—activated” for “Assay—quiescent”, “2500” for “15000”, “EGM2 (CC-3162,” for “EBM2 (CC-3156, Clonetics)+0.5% FBS (CC-4101A, Clonetics)+GA-1000 (CC-4381A,”, “EGM2” for “EBM2+0.5% FBS”

MCF-7 = assay: Growth inhibition (SRB or cell counting), MCF-7; format: cell-based; conditions: Homo sapiens, MCF7, concentration required to inhibit net cell growth by 50%, read-out: Cancer cell line: IC50
[4] = system: Human umbilical vein endothelial cells (HUVECs), normal quiescent type endothelial cells; assay: Proliferation assay, quiescent endothelium (Norm); format: cell-based; conditions: HUVEC, given as ranges
Experimental: as §1

MDA-MB-231 = assay: Growth inhibition (SRB or cell counting), MDA-MB-231; format: cell-based; conditions: Homo sapiens; MDA-MB-231 (footnote b); given as ranges; read-out: Cancer cell line: IC50
[5] = around the viable rim region, 24 hours

Row | SMILES | IC50 [3] [nM] | IC50 [4] [nM] | also measured
1 | COc1ccc(/C=C\c2cc(OC)c(OC)c(OC)c2)cc1O [Combretastatin A4] | – | – | Selectivity activated vs quiescent endothelial cells [1]: equally potent against quiescent and activated endothelial cells
2 | COc1cc(C(=O)c2c(C)oc3c(OP(=O)([O-])[O-])c(OC)ccc23)cc(OC)c1OC.[Na+].[Na+] [Example 2, Disodium 6-methoxy-2-methyl-3-(3,4,5-trimethoxybenzoyl)benzofuran-7-yl phosphate] | – | – | Tumor growth (ratio to initial tumor volume) [2]: tumor growth inhibition; Number of apoptotic cells within the tumor (Caki-1 xenograft tumors; 24-30 hrs after treatment): significant increase in the number of apoptotic cells; Staining of laminin (basement membrane integrity) (Caki-1 xenograft tumors; 24-30 hrs after treatment): considerable reduction in the staining; Staining with anti-human VEGF antibody (Caki-1 xenograft tumors; 24-30 hrs after treatment): dramatic increase in staining; Staining with endothelial cell marker CD31 (Caki-1 xenograft tumors; 24-30 hrs after treatment): decrease in staining; Expression of Hif-1α (Caki-1 xenograft tumors; [5]): Increased expression; Expression of Hif-2α (Caki-1 xenograft tumors; [5]): Increased expression; Expression of phosphorylated mTOR (ser 2448) (Caki-1 xenograft tumors; [5]): Increased expression
3 | COc1ccc(/C=C\c2cc(OC)c(OC)c(OC)c2)cc1OP(=O)(O)O [Example 4] | 1 to 10 | 1 to 10 | IC50 (MCF-7): 5 nM
4 | COc1ccc2c(C(=O)c3cc(OC)c(OC)c(OC)c3)coc2c1 [Example 5] | 10 to 100 | 10 to 100 | IC50 (MCF-7): 55 nM
5 | CNc1oc2c(O)c(OC)ccc2c1C(=O)c1cc(OC)c(OC)c(OC)c1 [Example 10] | 1 to 10 | 0.1 to 1 | IC50 (MCF-7): 3.5 nM
6 | C#Cc1oc2c(O)c(OC)ccc2c1C(=O)c1cc(OC)c(OC)c(OC)c1 [Example 12] | 1 to 10 | 1 to 10 | IC50 (MCF-7): 3.3 nM
7 | COc1cc(C(=O)c2coc3c(N)c(OC)ccc23)cc(OC)c1OC [Example 19] | 1 to 10 | 1 to 10 | IC50 (MDA-MB-231): 1 to 10 nM
8 | COc1cc(C(=O)c2c(C#N)oc3c(O)c(OC)ccc23)cc(OC)c1OC [Example 23] | 1 to 10 | 1 to 10 | IC50 (MDA-MB-231): 0.1 to 1 nM
9 | COc1cc(C(=O)c2c(N)oc3c(O)c(OC)ccc23)cc(OC)c1OC [Example 25] | 1 to 10 | 1 to 10 | IC50 (MDA-MB-231): 0.1 to 1 nM
10 | CCCCc1oc2c(O)c(OC)ccc2c1C(=O)c1cc(OC)c(OC)c(OC)c1 [Example 32] | 1 to 10 | 1 to 10 | –
11 | CCc1oc2c(O)c(OC)ccc2c1C(=O)c1cc(OC)c(OC)c(OC)c1 [Example 33] | 0.1 to 1 | 0.1 to 1 | –
12 | COc1cc(C(=O)c2c(CN(C)C)oc3c(O)c(OC)ccc23)cc(OC)c1OC [Example 34] | 1 to 10 | 1 to 10 | –
13 | COc1cc(C(=O)c2c(C)[nH]c3c(O)c(OC)ccc23)cc(OC)c1OC [Example 39] | 0.01 to 0.1 | 0.1 to 1 | –
14 | COc1ccc2c(C(=O)c3cc(OC)c(OC)c(OC)c3)c(C)sc2c1 [Example 41] | 1 to 10 | 1 to 10 | –
15 | COc1cc(C(=O)c2c(C)sc3c(O)c(OC)ccc23)cc(OC)c1OC [Example 42] | 0.1 to 1 | 1 to 10 | –
16 | COc1cc(C(=O)c2c(NCCS(N)(=O)=O)oc3c(O)c(OC)ccc23)cc(OC)c1OC [Example 45] | 1 to 10 | 1 to 10 | –

Source: patent US9006284B2, “Combination therapy for treating proliferative diseases” (Bionomics Limited, priority 2009, dated 2015)
